Results published in PMC8041284, “Tunable Methacrylamides for Covalent Ligand Directed Release Chemistry” (Journal of the American Chemical Society, 2021).
Where a SMILES comes first, the peptide text is derived from it. The star is where a group is joined. Cbz = O=C(OCc1ccccc1)*

Target: BTK (Homo sapiens, UniProt Q06187)
Test: biochemical
Conditions: read-out: BTK inhibition (%), 0.75 uM BTK, […] probe 3l, 15 min preincubation

Sequence of BTK (Q06187 402-655 limits assumed): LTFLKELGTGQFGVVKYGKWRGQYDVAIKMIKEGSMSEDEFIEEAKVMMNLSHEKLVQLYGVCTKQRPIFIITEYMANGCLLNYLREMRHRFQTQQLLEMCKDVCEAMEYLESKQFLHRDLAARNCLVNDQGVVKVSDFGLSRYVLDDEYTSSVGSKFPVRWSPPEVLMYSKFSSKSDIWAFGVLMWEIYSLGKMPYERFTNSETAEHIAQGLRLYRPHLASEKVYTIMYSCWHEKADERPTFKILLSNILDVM

Row | inhibition at 10 µM [%] | Compound
1 | 95.9 | COc1cc(N2CCC(N)CC2)ccc1Nc1ncc(Cl)c(-c2c[nH]c3ccccc23)n1 [PCM-0215211]
2 | 39.4 | COc1cc2c(Oc3ccc4[nH]c(C)cc4c3F)ccnc2cc1OCC1(N)CC1 [PCM-0216115]
3 | 10 | C[C@@H]1O[C@@H](OC[C@H]2O[C@@H](Oc3cc(O)c4c(c3)O[C@H](c3ccc(O)c(O)c3)CC4=O)[C@H](O)[C@@H](O)[C@@H]2O)[C@H](O)[C@H](O)[C@H]1O [PCM-0216467]
4 | 29.3 | O=C(Nc1ccc2c(O)cc(S(=O)(=O)O)cc2c1)Nc1ccc2c(O)cc(S(=O)(=O)O)cc2c1 [PCM-0216169]
5 | 3.1 | CN(C)C(=O)c1ccc(S(=O)(=O)c2ccc(NC(=O)[C@@](C)(O)C(F)(F)F)c(Cl)c2)cc1 [PCM-0215295]
6 | 9.3 | CC(=O)c1ccc(O)cc1O [PCM-0215067]
7 | 70.3 | CC1(C)C=Cc2c(ccc3c2OC[C@@H](c2ccc(O)cc2O)C3)O1 [PCM-0214974]
8 | -20.1 | Cc1ccc(C(C)C)cc1 [PCM-0216218]
9 | -27.8 | COc1cccc2c1c(O)c(C(=O)N(C)c1ccc(C(F)(F)F)cc1)c(=O)n2C [PCM-0215368]
10 | 30.9 | O=c1cc(-c2ccccc2)oc2cc(O[C@@H]3O[C@H](CO[C@@H]4O[C@H](CO)[C@@H](O)[C@H](O)[C@H]4O)[C@@H](O)[C@H](O)[C@H]3O)c(O)c(O)c12 [PCM-0216453]
11 | 10.9 | CC(C)NCC(O)c1ccccc1Cl (stereo not shown) [PCM-0214757]
12 | 2.3 | COc1cccc(C(N)=O)c1 [PCM-0216109]
13 | -24.7 | O=C(O)[C@@H]1CCCN1 [PCM-0216221]
14 | 10.8 | CO/N=C(\C(=O)N[C@@H]1C(=O)N2C(C(=O)[O-])=C(C[n+]3ccn4ncccc43)CS[C@H]12)c1nsc(N)n1 [PCM-0216591]
15 | -4.8 | CC(C)(C#N)c1ccc(N2C(=O)OCc3cnc4ccc(-c5cnc6ccccc6c5)cc4c32)cc1 [PCM-0215242]
16 | 18.5 | C=C1C2CCC(C2)C1(C)C (stereo not shown) [PCM-0216213]
17 | 2.3 | COC(=O)[C@@]1(C)CC[C@]2(C(=O)O)CC[C@]3(C)C(=CC[C@@H]4[C@@]5(C)C[C@H](O)[C@H](O[C@@H]6OC[C@@H](O[C@@H]7O[C@H](CO)[C@@H](O)[C@H](O)[C@H]7O)[C@H](O)[C@H]6O)[C@@](C)(CO)[C@@H]5CC[C@]43C)[C@@H]2C1 [PCM-0216472]
18 | 54.1 | CC(C)=CCc1cc2c(cc1O)O[C@H](c1ccc(O)cc1)CC2=O [PCM-0216180]
19 | 11.6 | CNCCN(C)Cc1cn[nH]c1-c1ccc(OC2CC(OCCC3CCOCC3)C2)cc1 (stereo not shown) [PCM-0215762]
20 | 13.1 | NC1CCC(N[C@@H]2C[C@H]2c2ccccc2)CC1 (stereo partly shown) [PCM-0215562]
21 | 13.1 | OCCOCCN1CCN(Cc2cccc(Oc3ccccc3)c2)CC1 [PCM-0215707]
22 | 0 | OC[C@H]1O[C@H](O[C@H]2[C@H](O)[C@@H](O)C(O)O[C@@H]2CO)[C@H](O)[C@@H](O)[C@@H]1O (stereo partly shown) [PCM-0215131]
23 | -6.9 | O=C(/C=C/c1cccnc1)c1ccncc1 [PCM-0215906]
24 | -3.4 | OC[C@H]1O[C@@H](O[C@H]2[C@H](O)[C@@H](O)C(O)O[C@@H]2CO)[C@H](O)[C@@H](O)[C@@H]1O (stereo partly shown) [PCM-0215689]
25 | -5.5 | O=C(c1ccc(F)c(F)c1Nc1ccc(I)cc1F)N1CC(O)([C@@H]2CCCCN2)C1 [PCM-0215480]
26 | -2.8 | COc1cc2c(cc1O)CC[C@@H]1[C@@H]2CC[C@]2(C)[C@@H](O)CC[C@@H]12 [PCM-0214607]
27 | 17.9 | CSCCC(N)C(=O)O (stereo not shown) [PCM-0216617]
28 | -8.6 | CCCCCCCCC(=O)O [PCM-0216031]

The remaining lines, values behind:

Row | Compound | inhibition at 10 µM [%]
29 | Cc1ccc(Sc2ccccc2N2CCNCC2)c(C)c1 [PCM-0095609] | -6.9
30 | OC[C@H]1OC(O)[C@H](O)[C@@H](O)[C@@H]1O (stereo partly shown) [PCM-0095297] | -10.1
31 | Nc1ncnc2c1c(-c1cccc(OCc3ccccc3)c1)cn2C1CC(CN2CCCC2)C1 (stereo not shown) [PCM-0095055] | 13.2
32 | N#C[C@@H]1C[C@@H]2C[C@@H]2N1C(=O)[C@@H](N)C12CC3CC(CC(O)(C3)C1)C2 [PCM-0095098] | -22.6
33 | COc1cc(Cc2cnc(N)nc2N)cc(OC)c1OC [PCM-0065007] | -7.8
34 | Cn1cc(C2=C(c3ccc(Cl)cc3Cl)C(=O)NC2=O)c2ccccc21 [PCM-0064915] | 3.4
35 | CC1CCC(C(=O)N(c2cc(C#CC(C)(C)C)sc2C(=O)O)C2CCC(O)CC2)CC1 (stereo not shown) [PCM-0095160] | 2.3
36 | COc1cc2c(cc1OC)CN(CCc1ccc(NC(=O)c3cc(OC)c(OC)cc3NC(=O)c3cnc4ccccc4c3)cc1)CC2 [PCM-0095616] | 4.6
37 | CCN(C(=O)c1c(O)c2c(Cl)cccc2n(C)c1=O)c1ccccc1 [PCM-0095368] | 11
38 | CN1CCN(c2c(F)cc3c(=O)c(C(=O)O)cn4c3c2OCN4C)CC1 [PCM-0095142] | 0
39 | COC[C@H](NC(=O)c1cnc(C)s1)C(=O)N[C@@H](COC)C(=O)N[C@@H](Cc1ccccc1)C(=O)[C@@]1(C)CO1 [PCM-0095574] | -4.6
40 | CC(C)C[C@@H](C=O)NC(=O)[C@H](CC(C)C)NC(=O)[C@H](CC(C)C)NC(=O)OCc1ccccc1 [PCM-0095809] (Cbz-Leu-Leu-Leu-aldehyde) | 5.4
41 | NC(=O)C(c1ccccc1)(c1ccccc1)[C@@H]1CCN(CCc2ccc3c(c2)CCO3)C1 [PCM-0086175] | 4.7
42 | COc1ccc(-c2cc(=O)c3c(OC)c(OC)c(OC)c(OC)c3o2)cc1 [PCM-0086738] | -26.9
43 | N#CCNC(=O)c1ccc(-c2ccnc(Nc3ccc(N4CCOCC4)cc3)n2)cc1 [PCM-0095254] | 16.6
44 | O=C(NCCS(=O)(=O)c1ccc(C(F)(F)F)cn1)c1ccc(Cl)cc1 [PCM-0007384] | 16.6
45 | NC(=O)c1ccc(I)c([N+](=O)[O-])c1 [PCM-0095053] | -1.4
46 | CC(C)(C)NC[C@H](O)COc1nsnc1N1CCOCC1 [PCM-0064983] | -3.9
47 | Cn1c(=O)cc(N2CCC[C@@H](N)C2)n(Cc2cc(F)ccc2C#N)c1=O [PCM-0095818] | 15.4
48 | COc1ccc(-c2cc3c(C)nc(N)nc3n(C3CCC(OCCO)CC3)c2=O)cn1 (stereo not shown) [PCM-0095467] | -9.7
49 | CN(C)[C@@H]1C(=O)C(C(N)=O)=C(O)[C@@]2(O)C(=O)C3=C(O)c4c(O)cccc4[C@@](C)(O)[C@H]3C[C@@H]12 [PCM-0085873] | 6.2
50 | CNC(=O)c1cccc(-c2ccc3c(N4CCOC[C@@H]4C)nc(N4CCOC[C@@H]4C)nc3n2)c1 [PCM-0095362] | -2.8
51 | COc1cc(F)c(C(C)C)cc1-c1ccc(C(F)(F)F)cc1CN1C(=O)O[C@H](c2cc(C(F)(F)F)cc(C(F)(F)F)c2)[C@@H]1C [PCM-0095486] | 22.6
52 | COc1cc2ncnc(Nc3ccc(F)c(Cl)c3)c2cc1OCCCN1CCOCC1 [PCM-0086349] | 2.1
53 | CN1CCC(=C2c3ccccc3C=Cc3ccccc32)CC1 [PCM-0064430] | -9.3
54 | O=C(O)c1ccc2c(c1)nc(Nc1cccc(Cl)c1)c1ccncc12 [PCM-0095287] | 13.1
55 | Fc1cc(-c2cccc3ncc(-c4cnn(C5CCNCC5)c4)nc23)cc(F)c1CN1CCOCC1 [PCM-0095382] | 78.6
